The values that follow come from ChEMBL document CHEMBL3751817, “Anti-HIV-1 activity of a tripodal receptor that recognizes mannose oligomers” (Eur J Med Chem, 2015).

Series [1] concerns Human immunodeficiency virus 1. Put plainly: Antiviral activity against HIV1 3B infected in human CD4+ T-lymphocyte CEM cells assessed as inhibition of virus-induced cytopathicity after 4 to 5 days by microscopic analysis. It is filed as functional, organism-based. As to conditions: Human immunodeficiency virus 1, 3B, CCRF-CEM. A general note: Damage to the host cells serves as the signal in cytopathic effect assays.

The subject of series [2] is Human immunodeficiency virus 2. The series can be described thus: Antiviral activity against HIV2 ROD infected in human CD4+ T-lymphocyte CEM cells assessed as inhibition of virus-induced cytopathicity after 4 to 5 days by microscopic analysis. As to conditions: Human immunodeficiency virus 2, ISOLATE ROD, CCRF-CEM. It counts as functional, organism-based.
In the next series the test system is CCRF-CEM. Put plainly: Cytotoxicity against human CD4+ T-lymphocyte CEM cells. It is filed as cell-based.
Series [3] in a line: Inhibition of HIV integrase-mediated 3'-processing activity using 5'-[gamma-32P]-labeled full length 21T DNA after 2 hrs. Details: species or system Human immunodeficiency virus.
A short description of series [4]: Inhibition of HIV integrase-mediated strand transfer activity using precleaved 19T duplex oligonucleotide after 2 hrs. Details: species or system Human immunodeficiency virus.
The test system of series [5] is Human immunodeficiency virus 1. Put plainly: Binding affinity to recombinant HIV1 3B glycoprotein-120 after 5 mins by sensorchip direct surface plasmon resonance assay. (Surface plasmon resonance follows binding to a sensor surface in real time, without labels.)
The subject of series [6] is Human immunodeficiency virus 1. The series can be described thus: Binding affinity to recombinant HIV1 3B glycoprotein-120 at 5 uM after 5 mins by sensorchip direct surface plasmon resonance assay in presence of 100 and 400 uM mann (alpha-1,2)3.
The test system of series [7] is Human immunodeficiency virus 1. The series can be described thus: Binding affinity to recombinant HIV1 3B glycoprotein-120 at 5 uM after 5 mins by sensorchip direct surface plasmon resonance assay in presence of 100 and 400 uM mann (alpha-1,3-1,6)3.
Series [8] deals with Human immunodeficiency virus. Put plainly: Inhibition of HIV integrase-mediated strand transfer activity using 5'-[gamma-32P]-labeled full length 21T DNA at 50 nM after 2 hrs.
The subject of series [9] is Human immunodeficiency virus 1. Put plainly: Binding affinity to recombinant HIV1 3B glycoprotein-120 after 5 mins by sensorchip reverse surface plasmon resonance assay.

As usually defined, the EC50 is the concentration giving half of the maximal effect. By CC50 is commonly meant the concentration giving 50% cytotoxicity. Low values mean greater toxicity to the cells, high ones lower toxicity to the cells. By IC50 is commonly meant the concentration that gives 50% inhibition. Higher therefore signals weaker potency in that assay. As usually defined, the inhibition is the relative decrease from the control value, in per cent. A low value points to little suppression.

Calls of active or inactive are those of the source. The rule behind the calls is not given here.

For the compound `CCc1c(CN2CCN(C(=O)c3ccc(O)c(O)c3O)CC2)c(CC)c(CN2CCN(C(=O)c3ccc(O)c(O)c3O)CC2)c(CC)c1CN1CCN(C(=O)c2ccc(O)c(O)c2O)CC1`, the EC50 in [1] and in series [2] was greater than 10 µM each time. In the series with CCRF-CEM, this compound displayed a cytotoxic concentration (CC50) of 36 µM. Moreover, the IC50 worked out at 42 µM in series [3] and 5.6 µM in series [4].

Turning to `CCc1c(CNC(=O)c2ccc(O)cc2O)c(CC)c(CNC(=O)c2ccc(O)cc2O)c(CC)c1CNC(=O)c1ccc(O)cc1O`, the concentration for a half-maximal effect (EC50) in [1] and in series [2] was greater than 4 µM each time. In the series with CCRF-CEM, the midpoint of cytotoxicity, the CC50, lay at 28 µM.

Turning to `CN[C@@H]1[C@H](O[C@@H]2OC[C@@H](O)[C@H](O)[C@H]2O)[C@@H](O)[C@H](O[C@H]2c3cc(C)c(C(=O)N[C@H](C)C(=O)O)c(O)c3-c3c(cc4c(c3O)C(=O)c3cc(OC)cc(O)c3C4=O)[C@@H]2O)O[C@@H]1C` [PRADIMICIN A], the EC50 in series [1] came to 3.4 µM. The CC50 with CCRF-CEM was greater than 50 µM.

In the case of `CCc1c(CNC(=O)c2ccc(N)nc2)c(CC)c(CNC(=O)c2ccc(N)nc2)c(CC)c1CNC(=O)c1ccc(N)nc1`, the EC50 in series [1] and in series [2] was greater than 250 µM in each case. The same compound returned a CC50 in the series with CCRF-CEM greater than 250 µM.

As for `CCc1c(CNC(=O)c2cc(O)c(O)c(O)c2)c(CC)c(CNC(=O)c2cc(O)c(O)c(O)c2)c(CC)c1CNC(=O)c1cc(O)c(O)c(O)c1`, the EC50 in series [1] and in series [2] was greater than 10 µM in each case. The compound also registered a CC50 in the series on CCRF-CEM of 49 µM.

As to `CCc1c(CNC(=O)c2ccc(O)c(O)c2O)c(CC)c(CNC(=O)c2ccc(O)c(O)c2O)c(CC)c1CNC(=O)c1ccc(O)c(O)c1O`, the EC50 in series [1] was found to be 6.3 µM; in series [2], 41 µM. For the same compound, the CC50 in the series on CCRF-CEM came out at 144 µM. The outcome in series [5] was Active. Also, the outcome in series [6] and in series [7] was inactive. In addition, the half-maximal inhibitory concentration (IC50) in series [3] was 31 µM; in [4], 10.9 µM.

Turning to `CCc1c(CNC(=O)c2ccc(O)c(O)c2O)c(CC)c(CNC(=O)[C@H]2C[C@@H](C(=O)NCc3c(CC)c(CNC(=O)c4ccc(O)c(O)c4O)c(CC)c(CNC(=O)c4ccc(O)c(O)c4O)c3CC)C[C@@H](C(=O)NCc3c(CC)c(CNC(=O)c4ccc(O)c(O)c4O)c(CC)c(CNC(=O)c4ccc(O)c(O)c4O)c3CC)C2)c(CC)c1CNC(=O)c1ccc(O)c(O)c1O`, the EC50 in [1] and in series [2] was greater than 10 µM each time. Further, in the series with CCRF-CEM, the CC50 stood at 25 µM.

Regarding `CCc1c(CNCCNC(=O)c2ccc(O)c(O)c2O)c(CC)c(CNCCNC(=O)c2ccc(O)c(O)c2O)c(CC)c1CNCCNC(=O)c1ccc(O)c(O)c1O`, the EC50 in series [1] and in series [2] was greater than 10 µM each time. The compound further returned a cytotoxic concentration (CC50) in the series on CCRF-CEM of 117 µM.

As for `CCc1c(CNC(=O)c2ccc(N)cc2)c(CC)c(CNC(=O)c2ccc(N)cc2)c(CC)c1CNC(=O)c1ccc(N)cc1`, the EC50 in [1] and in series [2] was greater than 250 µM each time. This compound also yielded a CC50 in the series on CCRF-CEM greater than 250 µM.

As to `CCc1c(CNC(=O)C2=C[C@H](O)[C@H](O)[C@@H](O)C2)c(CC)c(CNC(=O)C2=C[C@H](O)[C@H](O)[C@@H](O)C2)c(CC)c1CNC(=O)C1=C[C@H](O)[C@H](O)[C@@H](O)C1`, the EC50 in [1] and in series [2] was greater than 250 µM throughout. In addition, in the series with CCRF-CEM, the CC50 was greater than 250 µM.

With `C[C@@H]1CCO[C@H]2Cn3cc(C(=O)NCc4ccc(F)cc4F)c(=O)c(O)c3C(=O)N12`, the inhibition in series [8] is greater than 50%.

As to `CCc1c(CNC(=O)c2ccc[nH]2)c(CC)c(CNC(=O)c2ccc[nH]2)c(CC)c1CNC(=O)c1ccc[nH]1`, the 50% effective concentration (EC50) in [1] and in series [2] was greater than 10 µM in each case. In addition, the CC50 in the series on CCRF-CEM was greater than 10 µM.

Turning to `CCc1c(CNC(=O)CCC(=O)NCCCOCCOCCOCCCN)c(CC)c(CNC(=O)c2ccc(O)c(O)c2O)c(CC)c1CNC(=O)c1ccc(O)c(O)c1O`, in series [9], the outcome was Active.

As for `CCc1c(CNC(=O)C2C[C@H](O)C(O)[C@@H](O)C2)c(CC)c(CNC(=O)C2C[C@H](O)C(O)[C@@H](O)C2)c(CC)c1CNC(=O)C1C[C@H](O)C(O)[C@@H](O)C1` (some centres not stated), the EC50 in [1] and in series [2] was greater than 250 µM throughout. The compound further showed a CC50 in the series with CCRF-CEM greater than 250 µM.

Consider `CCc1c(CNC(=O)c2c(O)cc(O)cc2O)c(CC)c(CNC(=O)c2c(O)cc(O)cc2O)c(CC)c1CNC(=O)c1c(O)cc(O)cc1O`, for which the EC50 in series [1] and in series [2] was greater than 50 µM in each case. This compound yielded a CC50 in the series on CCRF-CEM of 112 µM.

Consider `CCc1c(CNC(=O)CCc2ccc(O)c(O)c2)c(CC)c(CNC(=O)CCc2ccc(O)c(O)c2)c(CC)c1CNC(=O)CCc1ccc(O)c(O)c1`, for which the concentration giving a half-maximal response (EC50) in series [1] and in series [2] was greater than 10 µM each time. The compound further yielded a CC50 in the series on CCRF-CEM of 22 µM.

`CCc1c(CNC(=O)c2cccc(O)c2O)c(CC)c(CNC(=O)c2cccc(O)c2O)c(CC)c1CNC(=O)c1cccc(O)c1O`: the concentration giving a half-maximal response (EC50) in series [1] and in series [2] was greater than 2 µM each time. For the same compound, in the series with CCRF-CEM, the CC50 came to 5 µM.

With `CCc1c(CNCCCCNC(=O)c2ccc(O)c(O)c2O)c(CC)c(CNCCCCNC(=O)c2ccc(O)c(O)c2O)c(CC)c1CNCCCCNC(=O)c1ccc(O)c(O)c1O`, the 50% effective concentration (EC50) in series [1] and in series [2] was greater than 10 µM each time. The same compound came in with a CC50 with CCRF-CEM of 25 µM.

In the case of `CN[C@H]1[C@@H](O[C@H]2O[C@@H](CO)[C@H](O)[C@@H](OS(=O)(=O)O)[C@@H]2O)[C@H](O)[C@@H](O[C@H]2c3cc(C)c(C(=O)N[C@H](C)C(=O)O)c(O)c3-c3c(cc4c(c3O)C(=O)c3cc(OC)cc(O)c3C4=O)[C@@H]2O)O[C@H]1C`, in series [5], the outcome was Active.
